Tested on: Klebsiella oxytoca (CDCJI 380)
Experiment: holographic monitoring of cellular growth of Klebsiella oxytoca incubated with antibiotic
Format: cell-based
Conditions: 0.5 mg/mL Meropenem, about eight hours incubation
Method: FIGS. 18A-18E depict a sequence of photographs A-E of a sample volume 18, with FIG. 18A depicting the earliest photograph, and FIG. 18E depicting the latest photograph. The photographs A-E show cellular growth of Klebsiella oxytoca (CDCJI 380), which was incubated with 0.5 mg/mL of the antibiotic Meropenem over a period of about eight hours. The photographs A-E provide an example of a complex response of microorganisms to an antibiotic. A holograph 32 of the sample volume 18 was captured every ten minutes during the incubation period. FIG. 19 depicts a graph including a plot 170 of a cellular growth indicator (e.g., the holographic intensity variance) extracted from the full holograph 32, and a plot 172 of the cellular growth indicator extracted from the set of pixels comprising tile six of the holograph 32. The times corresponding to the photographs A-E of FIGS. 18A-18E are indicted by correspondingly labeled arrows in the graph of FIG. 19. […] The slight rise in the cellular growth indicator after seven hours is the earliest indication of a potential resurgence of cell growth, e.g., due to the microorganism becoming resistant.
The divergence of tile plot 172 from the full-holograph plot 170 begins at about the three and half hour mark. This is due to the response of the microorganism to the antibiotic in the localized region of the sample volume corresponding to tile six. This region of the sample volume contains a subpopulation of bacterial cells that appear to have become resistant to the antibiotic, and have begun to grow in colony clusters. This example of delayed resistance to an antibiotic is clinically relevant, and recognizing the resistance early in a test can lead to timely administration of the correct antibiotic at the right dose to treat the patient. From an algorithmic perspective, systematically dividing holographs into portions (e.g., tiles) and calculating the cellular growth indicator for each portion can be used to identify events or hot spots in the growth or death of microorganisms.

C[C@@H](O)[C@H]1C(=O)N2C(C(=O)O)=C(S[C@@H]3CN[C@H](C(=O)N(C)C)C3)[C@H](C)[C@H]12 [Meropenem]
cellular growth indicator (e.g., holographic intensity variance) over time, full holograph (full-holograph plot 170): decreases after three and a half hours of incubation, followed by a slight increase after seven hours of incubation
response of microorganism to antibiotic based on full-holograph plot (holograph every ten minutes, full-holograph plot 170): appears to be sensitive to the dose of antibiotic
cellular growth indicator over time, tile six of the holograph (tile plot 172 (tile six)): resurgent growth due to emerging antibiotic resistance at about four and a half hours

Source: patent US20240377321A1, “HOLOGRAPHIC IMAGE PROCESSING AND DATA EXTRACTION” (Accelerate Diagnostics, Inc., priority 2023, published 2024)
